Source: patent US20210290784A1, “POSITRON EMISSION TOMOGRAPHY (PET) RADIOTRACERS FOR IMAGING MACROPHAGE COLONY-STIMULATING FACTOR 1 RECEPTOR (CSF1R) IN NEUROINFLAMMATION” (The Johns Hopkins University, priority 2018, published 2021)

Legend:
[1] = Whole-body radiation dosimetry in mice, extrapolated to human; assay type: in vivo
Description: Male CD-1 mice were injected with [^11C]CPPC as described above for baseline studies and were euthanized at 10, 30, 45, 60, and 90 min after treatment. The various organs were quickly removed and percentage injected dose (% ID) per organ was determined. The human radiation dosimetry of [^11C]CPPC was extrapolated from the mouse biodistribution data using SAAM II (Simulation Analysis and Modeling II) and OLINDA/EXM software. The data were analyzed commercially (RADAR, Inc).
Radiation dosimetry for [^11C]CPPC was studied in fifteen male CD-1 mice (23-27 g) following our published procedure (Stabin M G, et al. (2005)). A solution of [^11C]CPPC in 0.2 ml of saline (7.4 MBq or 0.2 mCi) was injected as a bolus into the lateral tail vein, and groups of mice (n=3) were euthanized at 10, 30, 45, 60, and 90 min after the radiotracer injection. The lungs, heart, kidneys, liver, spleen, intestine, stomach, and brain were quickly removed and put on ice. One femur and samples of thigh muscle, bone marrow and blood were also collected. The organs were weighed, and the tissue radioactivity was measured with an automated gamma counter (LKB Wallac 1282 CompuGamma CS Universal Gamma Counter). The percent injected dose per organ (% ID/organ) was calculated by comparison with samples of a standard dilution of the initial dose. All measurements were corrected for decay. Resultant values of % ID/organ were fit using the SAAM II software (Foster D M (1998)). Time integrals of activity (Stabin M G and Siegel J A (2003)) were entered into the OLINDA/EXM software (Stabin M G, et al. (2005)), using the adult male model. […] The number of disintegrations in the remainder of body was assumed to be equal to 100% of the activity administered integrated to total decay of ^11C, minus the disintegrations in other body organs.

CSF1R [2] = target: T1, CSF1R (Mus musculus, UniProt P09581); test: PET/CT imaging in EAE mice; assay type: in vivo; set-up: from tissue; host or cells: brain of living CD-1, C57BL/6J, transgenic APP (AD model), EAE and CSF1R KO mice
T1 sequence (P09581 20-977): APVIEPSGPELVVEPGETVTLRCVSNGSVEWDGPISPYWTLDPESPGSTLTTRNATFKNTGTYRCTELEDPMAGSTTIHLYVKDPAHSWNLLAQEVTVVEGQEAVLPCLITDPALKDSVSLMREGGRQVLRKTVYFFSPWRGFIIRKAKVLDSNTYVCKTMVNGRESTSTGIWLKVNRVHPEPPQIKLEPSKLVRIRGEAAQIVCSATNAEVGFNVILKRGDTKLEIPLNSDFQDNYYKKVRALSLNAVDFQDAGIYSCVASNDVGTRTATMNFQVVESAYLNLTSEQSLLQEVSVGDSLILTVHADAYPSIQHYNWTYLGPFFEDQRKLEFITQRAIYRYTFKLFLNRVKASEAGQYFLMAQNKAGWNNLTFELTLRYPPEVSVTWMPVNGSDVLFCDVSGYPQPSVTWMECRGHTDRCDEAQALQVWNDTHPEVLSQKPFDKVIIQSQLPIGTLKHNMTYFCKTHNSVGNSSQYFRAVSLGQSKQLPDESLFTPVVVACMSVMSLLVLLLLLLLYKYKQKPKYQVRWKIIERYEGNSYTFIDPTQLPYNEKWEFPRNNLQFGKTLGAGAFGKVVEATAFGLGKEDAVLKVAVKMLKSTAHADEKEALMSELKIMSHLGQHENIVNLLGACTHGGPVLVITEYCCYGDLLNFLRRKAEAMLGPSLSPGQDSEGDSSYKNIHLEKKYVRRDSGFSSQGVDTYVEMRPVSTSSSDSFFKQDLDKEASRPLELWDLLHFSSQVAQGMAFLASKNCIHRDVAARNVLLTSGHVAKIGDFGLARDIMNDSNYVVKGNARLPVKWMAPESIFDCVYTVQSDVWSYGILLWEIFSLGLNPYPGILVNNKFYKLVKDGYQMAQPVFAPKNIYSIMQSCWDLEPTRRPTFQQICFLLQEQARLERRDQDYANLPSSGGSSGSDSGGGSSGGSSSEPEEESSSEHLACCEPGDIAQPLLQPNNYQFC

CSF1R [3] = target: T1, CSF1R; test: Brain uptake in microglia-depleted vs control mice; assay type: in vivo; set-up: from tissue; host or cells: brain of living CD-1, C57BL/6J, transgenic APP (AD model), EAE and CSF1R KO mice; details: whole brain % SUV, 45 min, PLX3397 chow 290 mg/kg for 3 weeks
Description: Male C57BL/6J mice (22-24 g) from Charles River Laboratories were purchased. […] The control C57BL/6J mice (5 animals) were fed with standard mouse chow for 3 weeks. On the last day of treatment, all animals were sacrificed by cervical dislocation at 45 min following injection of 5.0 MBq (0.135 mCi) [^11C]CPPC [specific radioactivity=475 GBq/μmol (12.8 Ci/μmol)] in 0.2 mL saline into a lateral tail vein. […] The outcome variables were calculated as % SUV.

[4] = male, baboon, in vivo, 90 min
CSF1R [5] = target: T1, CSF1R
[6] = two exponential fit of % ID/organ

Q: For [11CH3]N1CCN(c2ccc(NC(=O)c3ccc(C#N)o3)c(N3CCCCC3)c2)CC1 [[^11C]CPPC, 5-cyano-N-(4-(4-[^11C]methylpiperazin-1-yl)-2-(piperidin-1-yl)phenyl)furan-2-carboxamide], which “Activity observed in the intestines” value ([1]; CD-1 mice) is on record?
A: ~35%

Q: What about the “radiation burden to a human subject vs FDA limit” value ([1]; proposed dose of 740 MBq (20 mCi)) of the same compound?
A: < 5 Rem

Q: What about the “fitted metabolic model, Brain, first component %” value [1, 6] of the same compound?
A: 3.83%

Q: What about the “fitted metabolic model, Brain, first component T-bio” value [1, 6] of the same compound?
A: 0.302 h

Q: And the “fitted metabolic model, Brain, second component %” value [1, 6]?
A: 0.38%

Q: And the “fitted metabolic model, Brain, second component T-bio” value [1, 6]?
A: ∞

Q: What about the “fitted metabolic model, Heart, first component %” value [1, 6] of the same compound?
A: 1.00%

Q: What about the “fitted metabolic model, Heart, first component T-bio” value [1, 6] of the same compound?
A: 0.272 h

Q: And the “fitted metabolic model, Heart, second component %” value [1, 6]?
A: 0.14%

Q: What about the “fitted metabolic model, Heart, second component T-bio” value [1, 6] of the same compound?
A: ∞

Q: What about the “fitted metabolic model, Kidneys, first component %” value [1, 6] of the same compound?
A: 8.32%

Q: What about the “fitted metabolic model, Kidneys, first component T-bio” value [1, 6] of the same compound?
A: 0.297 h

Q: And the “fitted metabolic model, Kidneys, second component %” value [1, 6]?
A: 1.52%

Q: What about the “fitted metabolic model, Kidneys, second component T-bio” value [1, 6] of the same compound?
A: ∞

Q: And the “fitted metabolic model, Liver, first component %” value [1, 6]?
A: 97.6%

Q: What about the “fitted metabolic model, Liver, first component T-bio” value [1, 6] of the same compound?
A: 0.764 h

Q: What about the “fitted metabolic model, Liver, second component %” value [1, 6] of the same compound?
A: −100%

Q: What about the “fitted metabolic model, Liver, second component T-bio” value [1, 6] of the same compound?
A: 0.335 h

Q: What about the “fitted metabolic model, Lungs, first component %” value [1, 6] of the same compound?
A: 8.27%

Q: What about the “fitted metabolic model, Lungs, first component T-bio” value [1, 6] of the same compound?
A: 0.159 h

Q: What about the “fitted metabolic model, Lungs, second component %” value [1, 6] of the same compound?
A: 1.53%

Q: What about the “fitted metabolic model, Lungs, second component T-bio” value [1, 6] of the same compound?
A: 2.27 h

Q: And the “fitted metabolic model, Spleen, first component %” value [1, 6]?
A: 1.43%

Q: And the “fitted metabolic model, Spleen, first component T-bio” value [1, 6]?
A: 0.823 h

Q: And the “fitted metabolic model, Spleen, second component %” value [1, 6]?
A: −1.24%

Q: And the “fitted metabolic model, Spleen, second component T-bio” value [1, 6]?
A: 0.145 h

Q: What about the “brainstem uptake in EAE mice vs control animals” value (CSF1R [2]) of the same compound?
A: up to twofold greater

Q: What about the “reduction in radiotracer uptake in microglia-depleted mouse brain vs controls” value (CSF1R [3]) of the same compound?
A: 14%

Q: And the “total radiometabolites in blood” value [4]?
A: 71-76%

Q: What about the “ex vivo binding potential (BPex vivo)” value (CSF1R [5]; LPS mice, (LPS uptake-sham uptake)/sham uptake) of the same compound?
A: 0.53-0.62

Q: And the “SUVR uptake in i.p.-LPS mice vs controls” value (CSF1R [5]; experiments 2 and 3, blood-corrected, 45 min)?
A: significantly greater

Q: What about the “blocking with nonradiolabeled CPPC, % SUV radioactivity (experiment 1)” value (CSF1R [5]; i.p.-LPS mice, CPPC 1 mg/kg IP, no blood correction) of the same compound?
A: did not cause a significant reduction

Q: And the “specific fraction of whole-brain binding” value (CSF1R [5]; i.p.-LPS mice, blocking with CPPC and compound 8)?
A: more than 50%
